Reference: EP0951284B1, “[…] DERIVATIVES” (priority 1996, dated 1998)
pIC50: −log10 of the molar value. Counter-ions that a name gives are not always drawn.

Tests used:
whole brain AChE = target: T1, whole brain AChE (Mus musculus, UniProt P21836); assay: Ex vivo measurement of brain AChE inhibition after sub-cutaneous administration; format: in vivo, mice; conditions: for Time to peak activity t / Time to return to 50% of peak t: AChE inhibition; for ED50: sc, sub-cutaneous, mouse whole brain, at peak of activity, read-out: AChE Inhibition Ex vivo ED50 (AC)
T1 construct: the brains rapidly removed (minus cerebellum), weighed and homogenized in 0.1M phosphate buffer pH 8.0; from tissue; host or cells: mouse brain (minus cerebellum) homogenate supernatant
T1 sequence (P21836 32-614): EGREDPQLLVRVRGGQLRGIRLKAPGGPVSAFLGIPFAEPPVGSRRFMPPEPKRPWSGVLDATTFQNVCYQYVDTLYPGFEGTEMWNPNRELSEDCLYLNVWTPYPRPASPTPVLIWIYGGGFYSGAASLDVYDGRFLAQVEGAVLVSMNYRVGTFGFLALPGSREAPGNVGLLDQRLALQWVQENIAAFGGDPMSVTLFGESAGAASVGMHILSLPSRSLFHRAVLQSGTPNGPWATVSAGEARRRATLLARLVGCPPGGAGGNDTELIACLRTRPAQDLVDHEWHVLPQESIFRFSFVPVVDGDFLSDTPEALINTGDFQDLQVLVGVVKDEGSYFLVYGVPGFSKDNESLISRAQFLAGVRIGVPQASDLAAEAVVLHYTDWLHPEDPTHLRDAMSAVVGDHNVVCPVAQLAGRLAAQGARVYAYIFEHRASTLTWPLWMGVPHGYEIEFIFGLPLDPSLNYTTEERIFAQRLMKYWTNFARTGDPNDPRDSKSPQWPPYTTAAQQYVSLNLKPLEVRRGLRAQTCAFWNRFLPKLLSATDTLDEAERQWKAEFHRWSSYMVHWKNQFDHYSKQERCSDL
Method: Test drugs or saline were administered sub-cutaneously to male mice (Sabra strain, 28-35g). At least 4-5 mice were used per dose and a minimum of 3 doses per drug were tested. The mice were sacrificed 15, 30, 60, 70, 90, 120 or 180 minutes after drug administration, the brains rapidly removed (minus cerebellum), weighed and homogenized in 0.1M phosphate buffer pH 8.0, containing Triton (1mg/100g tissue) and centrifuged to remove cell debris. Aliquots (25 µl) of the supernatant were then incubated with acetylthiocholine and DTNB. AChE activity measured as described above. The % inhibition of whole brain AChE by each dose of drug was calculated by comparison with enzyme activity from 3 saline treated control mice run at the same time.

MAO-A [1] = target: T2, MAO-A (Rattus norvegicus, UniProt P21396); assay: Inhibition of MAO activity in vitro, rat brain homogenate, 5-HT substrate
T2 sequence (P21396 1-526): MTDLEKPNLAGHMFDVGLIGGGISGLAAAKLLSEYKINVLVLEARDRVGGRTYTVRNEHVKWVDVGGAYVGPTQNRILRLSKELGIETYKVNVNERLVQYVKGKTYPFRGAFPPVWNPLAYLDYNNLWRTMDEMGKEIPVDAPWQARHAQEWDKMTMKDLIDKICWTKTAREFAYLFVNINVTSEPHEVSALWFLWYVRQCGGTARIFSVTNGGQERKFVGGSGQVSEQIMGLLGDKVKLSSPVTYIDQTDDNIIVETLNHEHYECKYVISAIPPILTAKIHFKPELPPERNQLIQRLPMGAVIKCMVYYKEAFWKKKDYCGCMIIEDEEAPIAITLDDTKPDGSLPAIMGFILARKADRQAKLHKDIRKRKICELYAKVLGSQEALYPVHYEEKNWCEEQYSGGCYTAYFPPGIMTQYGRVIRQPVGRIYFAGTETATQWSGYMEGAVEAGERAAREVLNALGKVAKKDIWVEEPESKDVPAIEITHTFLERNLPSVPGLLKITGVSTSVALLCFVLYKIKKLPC
Method: The MAO enzyme source was a homogenate of rat brain in 0.3M sucrose, which was centrifuged at 600G for 15 minutes. The supernatant was diluted appropriately in 0.05M phosphate buffer, and pre-incubated with serial dilutions of test compounds for 20 minutes at 37°C. ^14C-Labeled substrates (2-phenylethylamine, hereinafter PEA; 5-hydroxytryptamine, hereinafter 5-HT) were then added, and the incubation continued for a further 20 minutes (PEA), or 30-45 minutes (5-HT). Substrate concentrations used were 50µM (PEA) and 1mM (5-HT). In the case of PEA, enzyme concentration was chosen so that not more than 10% of the substrate was metabolized during the course of the reaction. The deaminated products were extracted into toluene-ethyl acetate (1:1, v/v) containing 0.6% (w/v) 2,5-diphenyloxazole prior to determination by liquid scintillation counting. Radioactivity in the eluate indicates the production of neutral and acidic metabolites formed as a result of MAO activity. Activity of MAO in the sample was expressed as a percentage of control activity in the absence of inhibitors after subtraction of appropriate blank values The activity determined using PEA as substrate is referred to as MAO-B, and that determined using 5-HT as MAO-A.

MAO-A [2] = assay: Inhibition of MAO activity ex vivo (brain tissue), 5-HT substrate; format: in vivo, mice; conditions: mouse brain tissue
Method: (§1) Male Sabra mice, weighing 45-50g were injected with test compound solutions (prepared in 0.9% saline). Each dose was administered to two or three mice. The mice were sacrificed two hours after drug administration or at a time corresponding to the peak AChE inhibition time (see Table 6). The brain and liver were rapidly dissected and stored in appropriate vials on ice. The tissues were weighed, diluted to 1/20 in sucrose 0.3M and stored at -20°C before performance of the MAO assay described above. The results given in Table 6 relate to measurements made on brain tissue only.

MAO-B = assay: Inhibition of MAO activity ex vivo (brain tissue), PEA substrate; format: in vivo, mice; conditions: mouse brain tissue
Method: as §1

mice = assay: Closed head injury (CHI) in mice: motor function, neurological severity score (NSS); format: in vivo; conditions: sc at ED50 for acetylcholinesterase inhibition, once 15 min after CHI
Method: The procedure for closed head injury followed was as described for rats in Shohami et al. (J. Neurotrauma (1993) 10(2) 109-119) with changes as described.
Animals: Male Sabra mice (Hebrew University strain) weighing 34-40g were used. They were housed in groups of 10 per cage, in a 12hr:12hr light:dark cycle. Food and water were provided ad libitum.
Trauma was induced under ether anesthesia. A longitudinal incision was performed in the skin covering the skull and the skin retracted to expose the skull. The head was fixed manually at the lower plane of the impact apparatus. A weight of 333g was delivered by an electric device from a height of 3cm to the left hemisphere, 1-2mm lateral to the midline in the midcoronal plane.
One point was awarded for the lack of a tested reflex or for the inability to perform the tasks outline in the Table. The maximal score that can be reached at 1 hour post-CHI is 25 points and 21 at later times. The difference in NSS at 1hr and at any other time reflects the recovery, and is referred to as NSS. An NSS score of 15-19 at 1hr denotes severe injury, 11-14 moderate injury and less than 10 mild injury.

MAO-A [3] = target: T2, MAO-A; assay: Inhibition of MAO activity following sub-acute (14 days) administration to rats, MAO-A; format: in vivo; design: from tissue; host or cells: brain, liver and intestine of Sprague Dawley rats; conditions: 20mg/kg daily for 14 days
Method: as §1
Experiments were done with Spague Dawley male rats. Procedures were repeated as described in Examples 2.1 and 2.2, but drug administration was continued daily for 14 days. At the end of this period animals were sacrificed and MAO levels determined in the brain, liver and intestines. Compound 17 was administered sub-cutaneously or per os at a dose of 20mg/kg.

Row | SMILES | Time to peak activity t (whole brain AChE) [min] | Time to return to 50% of peak t (whole brain AChE) [min] | ED50 (whole brain AChE) [µmol/kg] | pIC50 (MAO-A [1]) | MAO-A Inhibition Ex vivo ED50 (MAO-A [2]) [µmol/kg] | MAO-B Inhibition Ex vivo ED50 (MAO-B) | ΔNSS, 24 hr post-CHI (mice; saline 4.75±0.17) | ΔNSS, 7 days post-CHI (mice; saline 5.83±0.36) | ΔNSS, 14 days post-CHI (mice; saline 5.96±0.4) | inhibition at 20 mg/kg (MAO-A [3]; po, Brain) [%] | inhibition at 20 mg/kg (MAO-A [3]; po, Intestine) [%] | inhibition at 20 mg/kg (MAO-A [3]; po, Liver) [%] | inhibition at 20 mg/kg (MAO-A [3]; sc, Brain) [%] | inhibition at 20 mg/kg (MAO-A [3]; sc, Intestine) [%] | inhibition at 20 mg/kg (MAO-A [3]; sc, Liver) [%]
1 | C#CCNCCc1cccc(OC(=O)N(C)C)c1 [Compound 11] | 15 | 70 | 3.2 | 5.60 | 40 | >>30 µmoles/kg |  |  |  |  |  |  |  |  | 
2 | C#CCN(C)CCc1cccc(OC(=O)N(C)C)c1 [Compound 12] | 15 to 30 | 120 | 2.8 | 6.42 | 4 | 21 µmol/kg |  |  |  |  |  |  |  |  | 
3 | C#CCNC(C)Cc1cccc(OC(=O)N(C)C)c1 (stereo not drawn) [Compound 16] | 15 | 70 | 2.3 | 5.15 | >20 | >20 µmol/kg |  |  |  |  |  |  |  |  | 
4 | C#CCNC(C)Cc1cccc(OC(=O)N(C)CC)c1 (stereo not drawn) [Compound 17, 3-(N-Me,N-Etcarbamyloxy)α-methyl, N-propargyl phenethylamine.HCl] | 30 to 60 | 120 | 64 | 4.92 | >40 | 40 µmol/kg | 5.58±0.38 | 6.92±0.36 | 7.83±0.53 | 59 | 25 | 59 | 76 | 10 | 33
